One assay relates to 8-OHdG. The assay can be described thus: 8-OHdG level in colon tissue (immunohistochemical staining, ELISA). The format is in vivo, mice. The conditions noted are these: group ES: 2.0% v/v ethanol diet + 2.5 mg sesaminol per day oral, 2 weeks, group E highest. An excerpt: The present inventors have previously reported that chronic oral administration of ethanol to mice increases oxidative stress in colon tissue (NPL 13). Therefore, in order to verify the effect of oral administration of sesaminol on oxidative stress in the colon induced by chronic oral consumption of ethanol, the levels of oxidative stress markers (8-hydroxy-2′-deoxyguanosine (8-OHdG), malondialdehyde (MDA), and 4-hydroxyalkenals (HAE)) were examined in colon tissue of the mice in groups C, S, E, and ES.
The level of 8-OHdG, which is an oxidative stress marker in tissue, was examined by immunohistochemical staining and ELISA.
Immunostained tissue specimens were prepared in the same manner as the method described above, except that the primary antibody was rabbit anti-8-OHdG monocolonal antibody.
A colon tissue sample (50 mg) was homogenized in 1 mL of DNAzol reagent, and the resulting homogenate was centrifuged at 20,000× g at 4° C. for […]. DNA was then isolated from the supernatant by ethanol precipitation and treated with an 8-OHdG assay preparation reagent set (FUJIFILM Wako Pure Chemical
Corporation). Equal amounts of the extracted DNA were used for analysis of the 8-OHdG level using an OxiSelect oxidative DNA damage ELISA kit (Cell Biolabs, Inc.).
(In general: An ELISA detects its analyte on a solid surface through an enzyme-linked reagent.)

For a further assay, the system named is MDA+HAE. The assay can be described thus: Lipid peroxide measurement (MDA+HAE) in colon tissue. The conditions noted are these: group ES: 2.0% v/v ethanol diet + 2.5 mg sesaminol per day oral, 2 weeks; group E highest. Format: in vivo, mice. Here is the method: Lipid peroxidation is used as an indicator of oxidative stress in cells and tissues; lipid peroxides produce MDA and HAE upon degradation. Therefore, the MDA+HAE level in colon tissue was examined as a marker of lipid peroxidation response.
A colon tissue sample (100 mg) was homogenized in 1 mL of 20 mM phosphate buffered saline (pH of 7.4) with a homogenizer and centrifuged at 3,000× g at 4° C. for 10 minutes. The resulting precipitate was examined for malondialdehyde (MDA) and 4-hydroxyalkenals (HAE) using a lipid peroxide assay kit (Oxford Biomedical Research, Inc.).

The subject of a further assay is TNF-α. Kind of assay: TNF-α expression in colon tissue (qRT-PCR, ELISA). Format: in vivo, mice. Particulars: group ES: 2.0% v/v ethanol diet + 2.5 mg sesaminol per day oral, 2 weeks, vs group E; higher than group C. From the text:
It has been reported that chronic consumption of an excessive amount of ethanol can induce inflammation associated with tumor formation in colon tissue. Therefore, in order to verify whether oral administration of sesaminol has a preventive effect on ethanol-induced colitis, the expression levels of inflammatory cytokines (TNF-α and IL-6) and chemokine (MCP-1) in the large intestinal lamina propria of the mice in the four groups (groups C, S, E, and ES) were examined by qRT-PCR and ELISA. The NF-κB activity in the mice in the four groups was also examined. NF-κB is a transcription factor that is involved in expression of genes regulating inflammation and is activated by exposure of immune cells to pro-inflammatory factors.
Total RNA was extracted from colon tissue samples. […]
A colon tissue sample (100 mg) was homogenized in 1 mL of an M-PER mammalian protein extraction reagent (Pierce) containing a diluent of a protease inhibitor cocktail (Nacalai Tesque, Inc.), and the resulting homogenate was centrifuged at 20,000× g at 4° C. for 15 minutes. The protein concentration of the supernatant was measured with a protein assay reagent (Bio-Rad Laboratories, Inc.), and equal amounts of proteins were used for analysis of the expression levels of TNF-α, IL-6, and MCP-1 by ELISA.
On the technique in general: Real-time PCR tracks product formation cycle by cycle.

A further assay has as its system claudin-1. Kind of assay: Western blotting of claudin-1 in colon tissue. Format: in vivo, mice. Particulars: group ES: 2.0% v/v ethanol diet + 2.5 mg sesaminol per day oral, 2 weeks, vs group E; lower than group C. An excerpt: Acetaldehyde, which accumulates during ethanol metabolism, is known to disrupt intestinal tight junctions (TJs) via dissociation of colonic epithelium TJ proteins (ZO-1, occludin, and claudin-1) from the cytoskeleton. […] Therefore, whether oral administration of sesaminol would affect ethanol-induced intestinal barrier dysfunction was examined by analyzing the expression levels of colonic epithelial TJ proteins and the plasma LPS level in the mice in the four groups (groups C, S, E, and ES).
WB was performed in the same manner as in Example 4 above. The following primary antibodies were used. • Anti-mouse zonula occludens-1 protein (ZO-1) rabbit polyclonal antibody • Anti-mouse occludin rabbit polyclonal antibody • Anti-mouse claudin-1 rabbit polyclonal antibody
A general note: In western blotting, separated proteins are transferred to a membrane and probed.

The next assay concerns secretory IgA. Kind of assay: Amount of secretory IgA in colon tissue of mice. Format: in vivo. The conditions noted are these: group ES: 2.0% v/v ethanol diet + 2.5 mg sesaminol per day oral, 4 weeks, vs group E; level similar to group C. The protocol: The effect of oral administration of sesaminol on the amount of mucus secretion in mouse colon was examined by measuring the amount of fecal mucin of the mice in each group (groups C, E, S, and ES) and the amount of secretory immunoglobulin A (sIgA) in the colon tissue of the mice.
After liquid nitrogen treatment, the amount of sigA in each colon tissue stored at −80° C. was quantified according to the product protocol of a reagent kit for measuring secretory IgA (QuickDetect (trademark) Secretory IgA (Mouse) ELISA kit, produced by BioVision, Inc.). The resulting value was converted to the secretory IgA concentration (ng/ml) per 100 mg of the tissue and evaluated.

The next assay concerns mouse gut microbiota. Kind of assay: Structural analysis of mouse gut microbiota (16S rRNA sequencing). The format is in vivo, mice. The conditions noted are these: 4 weeks. The protocol:
Additionally, the gut microbiota structures of the mice in each group (groups C, E, S, and ES) were analyzed.
The mouse gut microbiota 16S rRNA sequencing was outsourced to MyMetagenome Co., Ltd.
Immediately after collection, mouse feces was treated with liquid nitrogen and stored at −80° C. While the fecal samples were frozen, treatment was performed, and the extracted nucleic acids were used as samples for sequence analysis. The measurement was performed using a next-generation sequencer (NGS) (MiniSeq, Illumina, K.K.), and the results of 16S rRNA genes (the V1-V2 region) and sequences of 5,000 reads or more from the extracted nucleic acids were used for analysis. For the analysis of bacterial flora structure, raw sequence data processing and well-known sequence data analysis were performed, and the analysis was clustered at a 96% pairwise identity cutoff for 16S reads. Similarity values were assigned to the phylum and genus categories.

Where [1] appears, read: group S: 2.5 mg sesaminol per day oral, no ethanol, vs group C.

Each structure is given as a SMILES string. Entries after “also recorded” stand apart in the source; their conditions may differ.

In the case of `Oc1cc2c(cc1C1OCC3C(c4ccc5c(c4)OCO5)OCC13)OCO2` (stereo not shown) [Sesaminol], in the assay on 8-OHdG, the “8-OHdG level in colon tissue” value was “next highest level”. In the assay with MDA+HAE, the “MDA+HAE level in colon tissue” value is “next highest value; also recorded: slightly higher than those of group C and group S”. The “expression level of TNF-α (mRNA by qRT-PCR, protein by ELISA)” value with TNF-α is recorded as “significantly lower than those in group E”. Besides, in the assay on claudin-1, the “expression level of claudin-1” value is given as “significantly higher than those in group E”. Further, the “amount of secretory IgA in colon tissue” value with secretory IgA is listed as “significantly higher than that in group E”. In addition, the “bacterial flora structure at the phylum level (abnormalities observed in group E: Tenericutes, Verrucomicrobia, Proteobacteria, Actinobacteria increased)” value in the assay with mouse gut microbiota (group ES: 2.0% v/v ethanol diet + 2.5 mg sesaminol per day oral) is given as “recovered to the same level as group C”. Besides, the “relative abundance of the family Lachnospiraceae, the family Ruminococcaceae, and the family Tannerellaceae” value with mouse gut microbiota (group ES: 2.0% v/v ethanol diet + 2.5 mg sesaminol per day oral, group E significant decrease) was “recovered to the same level as that in group C”. Further, in the assay with mouse gut microbiota (group ES: 2.0% v/v ethanol diet + 2.5 mg sesaminol per day oral, group E significant increase), the “relative abundance of the family Enterobacteriaceae and the family Streptococcaceae” value is “recovered to the same level as that in group C”. In the assay with mouse gut microbiota (setting [1]), the “obligate anaerobes of the phylum Bacteroidetes and the phylum Firmicutes (short-chain fatty acids-producing bacteria)” value is “increase in obligate anaerobes of the phylum Bacteroidetes and the phylum Firmicutes”; the “short-chain fatty acid-producing bacteria of the family Lachnospiraceae, the family Ruminococcaceae, and the family Tannerellaceae” value is “increased in group S alone compared with group C”.

Values taken from patent US20240408053A1, “ENTERITIS-SUPPRESSING COMPOSITION” (KOBE GAKUIN EDUCATIONAL FOUNDATION, priority 2021, published 2024).
